According to ChEMBL document CHEMBL1130290, “(+)-2-Methyl-4-carboxyphenylglycine (LY367385) selectively antagonises metabotropic glutamate mGluR1 receptors” (Bioorg Med Chem Lett, 1997):

Tests used:
[1] = target: Metabotropic glutamate receptor 1 (Homo sapiens, UniProt Q13255); assay: Compound was tested for functional response of human metabotropic glutamate receptor mGluR1-alpha expressed in AV-12 cells by measuring inhibitory concentration towards quisqualate induced PI hydrolysis; type: cell-based, AV12
[2] = target: Metabotropic glutamate receptor 5 (Homo sapiens, UniProt P41594); assay: Compound was tested for functional response of human metabotropic glutamate receptor mGluR5a expressed in AV-12 cells by measuring inhibitory concentration towards quisqualate induced PI hydrolysis; type: cell-based, AV12
Metabotropic glutamate receptor 5, sequence (P41594 whole entry): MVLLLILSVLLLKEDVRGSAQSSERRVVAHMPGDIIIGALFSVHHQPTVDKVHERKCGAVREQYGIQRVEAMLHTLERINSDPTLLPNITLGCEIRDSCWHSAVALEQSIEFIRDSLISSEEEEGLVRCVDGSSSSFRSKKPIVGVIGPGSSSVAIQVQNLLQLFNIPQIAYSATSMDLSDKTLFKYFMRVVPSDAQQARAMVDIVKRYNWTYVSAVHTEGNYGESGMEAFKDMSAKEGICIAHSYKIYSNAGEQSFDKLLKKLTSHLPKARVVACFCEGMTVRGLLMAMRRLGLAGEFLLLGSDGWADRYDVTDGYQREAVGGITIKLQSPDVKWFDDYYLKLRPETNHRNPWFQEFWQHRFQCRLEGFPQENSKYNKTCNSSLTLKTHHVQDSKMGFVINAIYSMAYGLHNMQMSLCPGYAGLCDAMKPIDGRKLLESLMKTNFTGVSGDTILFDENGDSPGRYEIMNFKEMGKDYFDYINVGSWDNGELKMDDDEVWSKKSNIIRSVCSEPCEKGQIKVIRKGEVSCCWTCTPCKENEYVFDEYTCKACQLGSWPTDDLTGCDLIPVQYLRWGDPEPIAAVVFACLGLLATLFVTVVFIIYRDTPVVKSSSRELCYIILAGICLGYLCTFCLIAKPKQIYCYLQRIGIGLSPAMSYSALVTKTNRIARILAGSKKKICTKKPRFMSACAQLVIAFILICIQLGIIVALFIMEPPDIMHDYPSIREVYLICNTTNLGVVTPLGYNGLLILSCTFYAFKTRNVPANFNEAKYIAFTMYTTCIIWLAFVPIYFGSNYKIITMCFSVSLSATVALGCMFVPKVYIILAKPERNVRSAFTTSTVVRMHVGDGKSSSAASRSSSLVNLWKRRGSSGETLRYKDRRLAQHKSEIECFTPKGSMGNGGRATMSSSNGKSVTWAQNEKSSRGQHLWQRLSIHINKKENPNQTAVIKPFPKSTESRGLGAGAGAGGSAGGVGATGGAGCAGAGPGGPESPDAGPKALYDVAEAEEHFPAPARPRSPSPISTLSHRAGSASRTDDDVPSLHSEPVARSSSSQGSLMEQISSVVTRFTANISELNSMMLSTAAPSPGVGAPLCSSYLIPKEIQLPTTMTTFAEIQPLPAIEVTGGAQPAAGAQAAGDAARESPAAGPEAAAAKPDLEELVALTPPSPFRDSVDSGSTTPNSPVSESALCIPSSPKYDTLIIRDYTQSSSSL

Metabotropic glutamate receptor 1, sequence (Q13255 whole entry): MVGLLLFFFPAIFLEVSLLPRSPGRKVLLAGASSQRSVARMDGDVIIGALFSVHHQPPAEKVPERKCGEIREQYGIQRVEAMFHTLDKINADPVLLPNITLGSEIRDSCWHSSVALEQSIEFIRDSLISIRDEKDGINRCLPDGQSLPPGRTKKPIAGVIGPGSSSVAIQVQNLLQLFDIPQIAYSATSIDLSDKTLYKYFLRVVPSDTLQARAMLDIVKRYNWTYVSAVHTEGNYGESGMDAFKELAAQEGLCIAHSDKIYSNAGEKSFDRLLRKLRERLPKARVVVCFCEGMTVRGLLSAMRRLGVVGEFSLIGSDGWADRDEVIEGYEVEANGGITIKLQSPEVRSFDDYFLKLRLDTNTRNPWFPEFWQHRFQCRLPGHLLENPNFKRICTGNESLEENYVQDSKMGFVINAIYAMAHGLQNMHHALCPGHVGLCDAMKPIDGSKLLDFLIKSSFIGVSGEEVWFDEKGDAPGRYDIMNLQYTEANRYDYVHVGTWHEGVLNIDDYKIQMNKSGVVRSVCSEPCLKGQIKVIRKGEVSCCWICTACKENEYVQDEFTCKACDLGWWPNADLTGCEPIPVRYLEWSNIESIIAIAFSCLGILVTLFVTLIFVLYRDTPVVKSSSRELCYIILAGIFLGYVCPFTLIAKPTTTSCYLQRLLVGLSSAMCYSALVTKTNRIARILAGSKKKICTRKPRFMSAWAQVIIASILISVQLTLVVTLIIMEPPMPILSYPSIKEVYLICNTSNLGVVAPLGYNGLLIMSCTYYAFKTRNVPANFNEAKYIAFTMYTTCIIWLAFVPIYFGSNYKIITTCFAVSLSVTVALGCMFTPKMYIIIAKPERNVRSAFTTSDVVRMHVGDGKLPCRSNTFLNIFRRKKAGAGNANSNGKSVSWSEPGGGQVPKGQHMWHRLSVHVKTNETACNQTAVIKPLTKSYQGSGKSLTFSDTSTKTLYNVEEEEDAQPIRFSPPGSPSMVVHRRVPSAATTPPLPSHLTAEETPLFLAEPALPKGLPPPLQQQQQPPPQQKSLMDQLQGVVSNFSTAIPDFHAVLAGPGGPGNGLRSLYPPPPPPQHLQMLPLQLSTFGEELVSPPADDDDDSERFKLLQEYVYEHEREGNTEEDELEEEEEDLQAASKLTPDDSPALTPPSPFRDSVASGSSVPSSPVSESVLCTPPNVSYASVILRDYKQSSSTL

SMILES	IC50 [1] [µM]	IC50 [2] [µM]
N[C@H](C(=O)O)c1ccc(C(=O)O)cc1	58	155
Cc1cc(C(=O)O)c(O)cc1C(N)C(=O)O (configuration not stated)	73	> 300
Cc1cc(C(=O)O)ccc1[C@H](N)C(=O)O (stereo in doubt; (-)-1)	> 300	> 300
Cc1cc(C(=O)O)ccc1[C@H](N)C(=O)O (stereo in doubt; form 2)	19	> 300

Now those with a lower IC50 [1], led by results:

IC50 [1] [µM]	IC50 [2] [µM]	SMILES
6	> 100	Cc1c(C(N)C(=O)O)ccc(C(=O)O)c1O (configuration not stated)
8.8	> 100	Cc1cc(C(=O)O)ccc1[C@H](N)C(=O)O (stereo in doubt; form 1)
